The results in this text go back to ChEMBL document CHEMBL1152978 (J Med Chem, 2009).

Series [1] has as its system Mus musculus. Nature of the series: Toxicity in Swiss mouse assessed as occurrence of mydriasis at 30 mg/kg, ip up to 24 hrs. Type of series: organism-based. Also on record: dose 30 mg/kg, route intraperitoneal. The following applies: in vivo.
The target of series [2] is T1, Muscarinic acetylcholine receptor M3 (Homo sapiens, UniProt P20309). In words: Displacement of [3H]NMS from human muscarinic M3 receptor expressed in CHOK1 cells by microplate scintillation counting. The class given is cell-based, CHO-K1. Background: Displacement assays read how much labelled ligand stays bound in the presence of the test substance.
T1 sequence (P20309 whole entry): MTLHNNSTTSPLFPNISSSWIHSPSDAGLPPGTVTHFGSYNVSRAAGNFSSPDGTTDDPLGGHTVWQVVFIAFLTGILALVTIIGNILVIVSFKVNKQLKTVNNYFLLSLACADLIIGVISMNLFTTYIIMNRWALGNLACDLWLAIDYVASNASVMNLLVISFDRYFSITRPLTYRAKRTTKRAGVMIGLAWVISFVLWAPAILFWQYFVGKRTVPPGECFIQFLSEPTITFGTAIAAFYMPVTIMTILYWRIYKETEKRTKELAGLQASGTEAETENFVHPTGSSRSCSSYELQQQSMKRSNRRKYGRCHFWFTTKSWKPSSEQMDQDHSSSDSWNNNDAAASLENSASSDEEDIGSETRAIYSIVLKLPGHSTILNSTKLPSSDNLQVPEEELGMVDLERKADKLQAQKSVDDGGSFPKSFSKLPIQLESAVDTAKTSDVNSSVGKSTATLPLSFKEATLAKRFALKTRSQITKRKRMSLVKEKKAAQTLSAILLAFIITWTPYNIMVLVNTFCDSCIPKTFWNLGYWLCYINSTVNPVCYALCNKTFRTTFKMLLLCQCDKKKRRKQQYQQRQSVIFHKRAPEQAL
Series [3] addresses T2, Muscarinic acetylcholine receptor M1 (Homo sapiens, UniProt P11229).
T2 sequence (P11229 whole entry): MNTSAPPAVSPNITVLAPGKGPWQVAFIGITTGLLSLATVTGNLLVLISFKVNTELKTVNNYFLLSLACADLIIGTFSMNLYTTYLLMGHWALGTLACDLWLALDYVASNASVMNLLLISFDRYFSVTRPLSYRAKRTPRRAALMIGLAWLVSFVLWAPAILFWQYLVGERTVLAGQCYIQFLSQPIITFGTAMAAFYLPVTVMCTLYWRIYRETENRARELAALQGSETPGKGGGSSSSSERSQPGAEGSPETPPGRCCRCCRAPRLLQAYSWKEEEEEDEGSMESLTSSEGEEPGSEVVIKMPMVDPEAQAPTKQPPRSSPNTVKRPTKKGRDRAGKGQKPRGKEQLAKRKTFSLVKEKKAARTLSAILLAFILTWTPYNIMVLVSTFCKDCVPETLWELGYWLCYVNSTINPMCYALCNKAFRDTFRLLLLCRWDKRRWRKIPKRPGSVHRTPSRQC
Nature of the series: Displacement of [3H]NMS from human muscarinic M1 receptor expressed in CHOK1 cells by microplate scintillation counting. The class given is cell-based, CHO-K1.

For series [4], the system named is Cavia porcellus. Nature of the series: Inhibition of acetylcholine-induced bronchoconstriction in Dunkin-Hartley guinea pig assessed as time taken to recover 50% of maximum inhibitory effect at 3 mg/mL administered as nebulized solution. Type of series: functional.
In series [5] the test system is Mus musculus. In words: Toxicity in Swiss mouse assessed as neurobiological state and occurrence of xerostomia at 30 mg/kg, ip up to 24 hrs. The class given is organism-based. Also on record: dose 30 mg/kg, route intraperitoneal. The following applies: in vivo.
The target of series [6] is T3, Muscarinic acetylcholine receptor M2 (Homo sapiens, UniProt P08172).
T3 sequence (P08172 whole entry): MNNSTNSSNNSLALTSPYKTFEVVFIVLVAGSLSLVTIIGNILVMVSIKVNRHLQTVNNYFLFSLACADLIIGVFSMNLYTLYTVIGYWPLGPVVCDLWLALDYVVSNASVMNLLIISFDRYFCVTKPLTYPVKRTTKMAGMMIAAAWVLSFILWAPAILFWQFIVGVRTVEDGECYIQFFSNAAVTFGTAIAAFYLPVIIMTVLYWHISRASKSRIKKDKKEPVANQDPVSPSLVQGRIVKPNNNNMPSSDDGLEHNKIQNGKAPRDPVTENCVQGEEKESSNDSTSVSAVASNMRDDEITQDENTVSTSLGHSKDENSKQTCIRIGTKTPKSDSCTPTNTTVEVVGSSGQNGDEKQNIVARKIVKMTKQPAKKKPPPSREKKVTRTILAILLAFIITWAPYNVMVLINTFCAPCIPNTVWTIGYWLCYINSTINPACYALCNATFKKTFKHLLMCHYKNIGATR
Nature of the series: Displacement of [3H]NMS from human muscarinic M2 receptor expressed in CHOK1 cells by microplate scintillation counting. Type of series: cell-based, CHO-K1.

In series [7] the test system is Cavia porcellus. In words: Inhibition of acetylcholine-induced bronchoconstriction in Dunkin-Hartley guinea pig assessed as time taken to recover 50% of maximum inhibitory effect at 1 mg/mL administered as nebulized solution. The class given is functional.
Series [8] is described as follows: Metabolic stability in human plasma assessed as elimination half life at pH 7.4. The class given is ADME, cell-free. The following applies: read-out: beta t1/2.
In series [9] the target is T3, Muscarinic acetylcholine receptor M2. Nature of the series: Binding affinity to muscarinic M2 receptor.
Series [10] concerns the target T1, Muscarinic acetylcholine receptor M3.
Description: Binding affinity to muscarinic M3 receptor
The nature of series [11]: Chemical stability assessed as half life at pH 7.4 by UV-HPLC analysis. The following applies: buffer. Type of series: physicochemical.
Series [12] deals with T2, Muscarinic acetylcholine receptor M1. Nature of the series: Binding affinity to muscarinic M1 receptor.
Series [13] deals with Cavia porcellus. In words: Inhibition of acetylcholine-induced bronchoconstriction in Dunkin-Hartley guinea pig administered as nebulized solution. The class given is functional, organism-based.
Series [14] deals with Cavia porcellus. Nature of the series: Inhibition of acetylcholine-induced bronchoconstriction in Dunkin-Hartley guinea pig assessed as time taken to recover 50% of maximum inhibitory effect at 1 mg/mL administered as nebulized solution.

Consider `CC(C)[N+]1(C)C2CCC1CC(OC(=O)C(CO)c1ccccc1)C2.O.[Br-]` (stereo unspecified), for which, in the series on Mus musculus [1], the Activity entry was “Toxic”.
Usually IC50 stands for the concentration that inhibits the measured activity by half. Higher therefore signals a need for much substance. In the case of `O=C(O[C@H]1C[N+]2(CCCOc3ccccc3)CCC1CC2)[C@@](O)(c1cccs1)C1CCCC1.[Br-]`, the 50% inhibitory concentration (IC50) was determined as 1.62 nM in series [2], 0.81 nM in [3] and 1.01 nM in series [6]. For the same compound, the Time in the series on Cavia porcellus [4] was >6 h. The Activity result in the series with Mus musculus [5] was “Non-toxic”.
Turning to `O=C(O[C@H]1C[N+]2(CCCOc3ccccc3)CCC1CC2)C(c1cccs1)c1cccs1.[Br-]`, the figures for the IC50 in series [2], in series [3] and in series [6] were 0.37 nM, 0.34 nM and 0.35 nM, respectively. For the same compound, the Activity result in the series on Mus musculus [5] was “Non-toxic”.
The corresponding values for `O=C(O[C@H]1C[N+]2(CCCOc3ccccc3)CCC1CC2)C(O)(c1ccsc1)c1ccsc1.[Br-]` are 0.24 nM, 0.23 nM, 0.18 nM and “Non-toxic”.
Consider `O=C(O[C@H]1C[N+]2(CCCOc3ccccc3)CCC1CC2)C(O)(c1ccccc1)c1ccccc1.[Br-]`, for which the half-inhibitory concentration (IC50) in series [3] was 0.31 nM. Also, the Time in the series with Cavia porcellus [4] was >6 h. The Activity result in the series with Mus musculus [5] was “Non-toxic”.
For `O=C(O[C@H]1C[N+]2(CCCCc3ccccc3)CCC1CC2)C(O)(c1cccs1)c1cccs1.[Br-]`, the Time in the series on Cavia porcellus [7] and in the series with Cavia porcellus [4] was 6 h in each case. Further, the IC50 in [2] stood at 0.45 nM; in series [3] it was 0.29 nM; in series [6], 0.38 nM. Also, the Activity entry in the series with Mus musculus [5] was “Non-toxic”.
With `CC1(C(=O)O[C@H]2C[N+]3(CCCOc4ccccc4)CCC2CC3)c2ccccc2Oc2ccccc21.[Br-]`, the IC50 worked out at 0.28 nM in series [3] and 0.27 nM in [6]. Moreover, the Activity entry in the series with Mus musculus [5] is “Non-toxic”.
`O=C(O[C@H]1C[N+]2(CCCOc3ccccc3)CCC1CC2)[C@@](O)(c1ccccc1)c1cccs1.[Br-]`: the IC50 in [2] was determined as 0.25 nM; in series [3], 0.16 nM; in [6], 0.17 nM. The Activity entry in the series with Mus musculus [5] is “Non-toxic”.
As a reminder, the Ki is a dissociation constant, usually derived from enzyme kinetics or from competition with a known ligand. Higher therefore signals lower affinity. In the case of `O=C(O[C@H]1C[N+]2(CCCOc3ccccc3)CCC1CC2)[C@](O)(c1cccs1)C1CCCC1.[Br-]`, the half-life in series [8] and in series [11] was > 1 h throughout. In addition, the inhibition constant Ki in series [9] stood at 0.06 nM; in [10], 0.07 nM; in series [12], 0.09 nM. In addition, the Time with Cavia porcellus [7] and in the series with Cavia porcellus [4] was >6 h in each case. In addition, the IC50 in [2] was found to be 0.18 nM; in [3], 0.15 nM; in [6] it was 0.14 nM. Besides, the Activity result in the series on Mus musculus [1] is recorded as “Toxic”; in the series with Mus musculus [5], “Non-toxic”.
With `O=C(O[C@H]1C[N+]2(CCc3ccccc3)CCC1CC2)C1c2ccccc2Oc2ccccc21.[Br-]`, in the series with Cavia porcellus [7], the Time is >6 h. The IC50 in series [2] is 0.31 nM; in series [3] it was 0.44 nM; in [6] it was 1.82 nM. Also, the Activity result with Mus musculus [5] is “Non-toxic”.
In the case of `CC1(C(=O)O[C@H]2C[N+]3(CCCOc4ccccc4)CCC2CC3)c2ccccc2-c2ccccc21.[Br-]`, the 50% inhibitory concentration (IC50) came to 0.96 nM in series [2], 1.26 nM in [3] and 2.1 nM in [6]. Also, the Activity result in the series on Mus musculus [5] is “Non-toxic”.
The corresponding values for `CC(C(=O)O[C@H]1C[N+]2(CCCOc3ccccc3)CCC1CC2)(c1cccs1)c1cccs1.[Br-]` are 0.59 nM, 0.6 nM, 0.73 nM and “Non-toxic”.
For the compound `O=C(O[C@H]1C[N+]2(CCCOc3ccccc3)CCC1CC2)C1(O)c2ccccc2-c2ccccc21.[Br-]`, the values for the concentration for half-maximal inhibition (IC50) in [2], in [3] and in series [6] were 0.71 nM, 0.63 nM and 1.08 nM, respectively. The Time in the series on Cavia porcellus [4] was >6 h. In the series on Mus musculus [5], the Activity result is reported as “Non-toxic”.
For the compound `O=C(O[C@H]1C[N+]2(CCc3ccccc3)CCC1CC2)C1(O)c2ccccc2-c2ccccc21.[Br-]`, the Time in the series on Cavia porcellus [7] was >6 h. The half-maximal inhibitory concentration (IC50) in series [2] stood at 1.04 nM; in series [3], 1.12 nM; in [6] it was 2.24 nM. Moreover, in the series on Mus musculus [5], the Activity result is listed as “Non-toxic”.
In the case of `O=C(O[C@H]1C[N+]2(CCCOc3ccccc3)CCC1CC2)C1(O)c2ccccc2Oc2ccccc21.[Br-]`, the Time in the series on Cavia porcellus [7] is >6 h. Moreover, the half-inhibitory concentration (IC50) in series [2] amounted to 1.04 nM; in [3], 0.23 nM; in series [6] it was 0.36 nM. Further, the Activity entry in the series on Mus musculus [5] is “Non-toxic”.
As to `O=C(O[C@H]1C[N+]2(CCc3ccccc3)CCC1CC2)C1(O)c2ccccc2Oc2ccccc21.[Br-]`, the Time with Cavia porcellus [7] is >6 h. The 50% inhibitory concentration (IC50) in [2] came to 0.28 nM; in series [3], 0.29 nM; in series [6] it was 0.54 nM. Moreover, the Activity result with Mus musculus [5] is “Non-toxic”.
On to `O=C(O[C@H]1C[N+]2(CCCOc3ccccc3)CCC1CC2)[C@](O)(c1ccccc1)c1cccs1.[Br-]`, for which the results for the IC50 in series [2], in [3] and in [6] were 0.48 nM, 0.38 nM and 0.31 nM, respectively. Also, the Activity result in the series on Mus musculus [5] is “Non-toxic”.
Regarding `O=C(O[C@H]1C[N+]2(CCCOc3ccccc3)CCC1CC2)C(O)(c1cccs1)c1cccs1.[Br-]` [ACLIDINIUM BROMIDE], the IC50 in the series on Cavia porcellus [13] turned out to be 140 µg/mL; in [3], 0.14 nM. In addition, the half-life is 0.0367 h in series [8] and 1 h in series [11]. The Time in the series with Cavia porcellus [7] and in the series on Cavia porcellus [14] was >6 h each time. Moreover, the Activity entry with Mus musculus [1] and in the series on Mus musculus [5] was “Non-toxic” each time. In series [12], the Ki was found to be 0.08 nM.
Regarding `C[N+]1(C)[C@@H]2C[C@@H](OC(=O)C(O)(c3cccs3)c3cccs3)C[C@H]1[C@@H]1O[C@@H]12.O.[Br-]` [TIOTROPIUM BROMIDE], half-maximal inhibition with Cavia porcellus [13] (IC50) required 45 µg/mL. Moreover, the Time with Cavia porcellus [7] is >6 h. Besides, the Activity result in the series with Mus musculus [1] is on record as “Toxic”.
